Experimental data taken from patent US20110009351A1, “SCREENING ASSAY TO IDENTIFY CORRECTORS OF PROTEIN TRAFFICKING DEFECTS” (Traffick Therepeutics Inc., priority 2007, published 2011).
Counter-ions that a name gives are not always drawn. Like-named read-outs stand apart in the source and are kept apart here.

What was measured:
F508del CFTR = molecular target: T1, F508del CFTR (Homo sapiens, UniProt P13569, DEL508-508); assay: YFP fluorescence quenching functional assay (iodide influx), HEK293 cells with F508del CFTR and halide sensitive YFP; type: cell-based; settings: for remaining activity at 10 µM: read-out: % YFP quench
T1 construct: expressed in transfected cells; host or cells: HEK293 Griptite cells stably expressing F508del CFTR, transiently transfected with halide-sensitive eYFP
T1 sequence (P13569 with tags, fused parts or gaps DEL508-508): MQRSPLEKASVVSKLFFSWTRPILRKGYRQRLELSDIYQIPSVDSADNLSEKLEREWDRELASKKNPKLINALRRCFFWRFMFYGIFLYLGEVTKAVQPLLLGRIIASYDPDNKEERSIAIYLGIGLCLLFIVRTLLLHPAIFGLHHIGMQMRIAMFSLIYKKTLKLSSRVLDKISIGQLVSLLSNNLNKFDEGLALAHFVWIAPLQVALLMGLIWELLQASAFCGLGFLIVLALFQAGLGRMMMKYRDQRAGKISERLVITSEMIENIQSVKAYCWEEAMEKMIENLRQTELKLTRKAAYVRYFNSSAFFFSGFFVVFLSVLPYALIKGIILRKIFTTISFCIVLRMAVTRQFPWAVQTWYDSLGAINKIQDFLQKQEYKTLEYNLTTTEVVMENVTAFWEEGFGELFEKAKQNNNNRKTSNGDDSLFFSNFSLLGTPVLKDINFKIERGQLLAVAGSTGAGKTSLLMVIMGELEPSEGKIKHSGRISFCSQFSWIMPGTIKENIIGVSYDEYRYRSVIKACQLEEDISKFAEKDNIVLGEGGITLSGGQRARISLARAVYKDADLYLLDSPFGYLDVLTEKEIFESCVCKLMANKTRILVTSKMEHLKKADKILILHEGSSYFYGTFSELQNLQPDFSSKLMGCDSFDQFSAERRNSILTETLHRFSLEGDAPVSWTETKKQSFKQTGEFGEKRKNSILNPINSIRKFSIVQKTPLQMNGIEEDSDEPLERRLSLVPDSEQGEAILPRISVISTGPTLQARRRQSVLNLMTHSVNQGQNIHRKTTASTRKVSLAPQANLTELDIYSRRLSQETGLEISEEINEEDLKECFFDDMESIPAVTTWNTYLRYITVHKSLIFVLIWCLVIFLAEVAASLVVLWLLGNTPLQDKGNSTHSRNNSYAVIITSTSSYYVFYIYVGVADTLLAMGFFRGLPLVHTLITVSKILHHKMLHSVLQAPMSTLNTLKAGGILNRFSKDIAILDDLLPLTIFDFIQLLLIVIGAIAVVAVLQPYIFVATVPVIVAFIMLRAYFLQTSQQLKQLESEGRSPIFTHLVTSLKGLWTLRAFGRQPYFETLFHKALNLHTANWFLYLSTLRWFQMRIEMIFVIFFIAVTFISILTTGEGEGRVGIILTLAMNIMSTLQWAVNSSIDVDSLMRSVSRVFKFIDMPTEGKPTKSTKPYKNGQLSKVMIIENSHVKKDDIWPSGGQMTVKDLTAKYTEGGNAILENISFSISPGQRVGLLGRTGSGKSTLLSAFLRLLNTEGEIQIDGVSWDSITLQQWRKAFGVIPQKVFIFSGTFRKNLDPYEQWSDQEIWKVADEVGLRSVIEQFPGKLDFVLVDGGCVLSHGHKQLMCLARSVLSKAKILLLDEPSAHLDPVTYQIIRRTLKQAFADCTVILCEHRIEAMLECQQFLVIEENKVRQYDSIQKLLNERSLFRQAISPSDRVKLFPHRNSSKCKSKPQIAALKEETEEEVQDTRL
Experimental: In addition to the MDS compounds, the 1120 Prestwick Library compounds were screened. (See FIGS. 7 to 12.) Of the compounds, one qualified as a “strong” hit, 3 as “medium” hits and 57 as “weak” hits. The Z score for the assay was 0.62. The top 50 hits were further tested in a counter screen in which the halide sensitive fluorescent compound (YFP) was expressed inside cells (Table 2). After incubation with the test compounds the ability of the cells to uptake iodide was measure by decreasing YFP fluorescence. In these cells this can only occur if functional CFTR is present at the cell surface (FIG. 7). The hits were also tested for the appearance of the Band C form of CFTR. […] The functionality of the compounds was further studied by the use of Iodide efflux assays for each compound in both BHK and the more physiologically relevant CFBE cells. […] FIG. 10 is a table of results for the 15 hit compounds which summarizes many experiments. […] The results for the best 15 compounds from the Prestwick Library, or “Prestwick 15”, are shown FIGS. 8, 9 and 10.
Strongly adhesive Human […] Kidney cells stably expressing both the human macrophage scavenger receptor (HEK293 Griptite, Invitrogen) and F508del CFTR were plated in 96-well plates and transiently transfected with pcDNA3 plasmid encoding a halide sensitive variant of eYFP. After 24-48 h later cells were exposed to 10 μM test compound in triplicate and incubated for an additional 24 h. Cells were stimulated for 20 minutes with a in a buffer containing 25 μM forskolin, 45 μM IBMX and 50 μM genistein final concentration. The high content screening assay was performed using a Cellomics platform. Iodide was added robotically to a final concentration of 50 mM and the resulting decrease in fluorescence was measured. Images were taken at time 0 and stored for subsequent use when calculating a mask so that only those cells that express YFP at time 0 are measured. The quenching was detected in 15 images taken over the course of an experiment lasting 40 seconds. Each test compound was compared to the following two controls: a negative control without drugs to assess photobleaching that may occur when the same field of view is repeatedly imaged, and a positive control with cells treated with a known potentiator. Results were generated from 150-300 cells per well.

ΔF508-CFTR = ΔF508-CFTR (Homo sapiens, UniProt P13569, DEL508-508); type: cell-based; parameters: which was then ligated into full length pNUT-CFTR linearized using Hpa1 and Pml1; expressed in transfected cells; settings: for hit in screen (class letter): BHK cells
Sequence of ΔF508-CFTR (P13569 with tags, fused parts or gaps DEL508-508): as above
Experimental: BHK cells expressing 3HA-tagged ΔF508-CFTR between passages 5-8 were seeded in 96-well plates (Corning half area, black-sided, clear bottom) at 15,000 cells per well and incubated with culture medium for 24 h at 37° C. Each well was then treated with a different test compound (80 compounds per plate) for 24 h at 20 μM final concentration. The remaining 16 wells on each plate were used for control conditions. […] Cells were fixed in a 4% paraformaldehyde solution, washed with PBS, and blocked with PBS containing 5% fetal bovine serum (FBS) for 1 hat 4° C.
Blocking solution was replaced with 15 μl of primary antibody solution containing 1% FBS and mouse monoclonal anti-HA antibody (1:150 dilution, Sigma) in PBS. The plates were sealed and left at 4° C. overnight. After three washes with 100 μl PBS, cells were incubated for 1 h with 15 μl of secondary antibody solution containing 1% FBS and anti-mouse IgG conjugated with FITC (1:100 dilution, Sigma) in PBS. Cells were again washed three times with 100 μl of PBS and analyzed in a plate reader (Analyst™ HT96.384, Biosystems; 488 nm excitation/510 nm emission). […] The mean fluorescence of four untreated wells was used as the background signal when calculating deviations of the 80 compound-treated wells. Hits were then cherry-picked into reservoir plates and re-tested in duplicate using the same assay.
BHK cells expressing ΔF508-CFTR were incubated with test compounds (20 μM) for 24 hours at 37° C. in a 96 well format. Plasma membrane expression of ΔF508-CFTR was then assayed by immunofluorescence using a primary antibody directed against the inserted 3HA tag and a secondary antibody conjugated with a fluorophore (FITC). […] The positive compounds were selected and retested in duplicate to obtain an N of 3. At the re-screening stage, the intrinsic fluorescence of each potential hit was also measured and the fluorescent ones were not considered further.
Screening was performed using BHK cells that stably express F508-CFTR bearing three tandem haemagglutinin-epitope tags (3HA) and linker sequences in the fourth extracellular loop after amino acid 901 (Howard et al., 1995; Carlile et al., 2007; Robert et al., 2008). […] Screening was performed using the Prestwick Chemical Library of 1120 high-purity compounds.

[1] = Prestwick library, initial corrector assay
[2] = Prestwick library, initial corrector assay, standard deviations above untreated controls
[3] = HEK293, 10 μM, 24 h, nc = 100% pc = 69.2
[4] = 10 μM, 24 h, nc = 100% pc = 69.2

| Structure (SMILES) | remaining activity at 10 µM (F508del CFTR; HEK293, 24 h) [%] | hit in screen (class letter) (ΔF508-CFTR; [1]) | hit in screen (score) (ΔF508-CFTR; [2]) | remaining activity at 10 µM (F508del CFTR; [3]) [%] | % YFP quench (F508del CFTR; [4]) [%] | hit in screen (score) (ΔF508-CFTR) | signal in the trafficking assay (ΔF508-CFTR) | Bart's scores (F508del CFTR; Functional assay, Prestwick compounds, positive tests / tests) |
| --- | --- | --- | --- | --- | --- | --- | --- | --- |
| CCN1C[C@]2(COC)CC[C@H](O)[C@@]34C5C[C@@H]6[C@@H](OC)C[C@](O)(C(CC23)C14)C5[C@H]6OC(C)=O (stereo partly shown) [Condelphine] | 97 | W (Medium and weak hits were defined as compounds giving a cell fluorescence signal that was between 2 and 3 or 1 and 2 standard deviations, respectively, above untreated control wells) | 1.6 |  |  |  |  |  |
| C[C@]12C[C@H](O)[C@H]3[C@@H](CCC4=CC(=O)CC[C@@]43C)[C@@H]1CC[C@@H]2C(=O)CO [Corticosterone] |  | W (Medium and weak hits were defined as compounds giving a cell fluorescence signal that was between 2 and 3 or 1 and 2 standard deviations, respectively, above untreated control wells) | 1.1 | 90 |  |  |  |  |
| Nc1ccc(S(=O)(=O)c2ccc(N)cc2)cc1 [Dapsone] |  | W (Medium and weak hits were defined as compounds giving a cell fluorescence signal that was between 2 and 3 or 1 and 2 standard deviations, respectively, above untreated control wells) | 1.1 | 88 |  |  |  |  |
| Cc1cc(N)c2ccccc2[n+]1CCCCCCCCCC[n+]1c(C)cc(N)c2ccccc21.[Cl-].[Cl-] [Dequalinlum dichloride] |  | M (Medium and weak hits were defined as compounds giving a cell fluorescence signal that was between 2 and 3 or 1 and 2 standard deviations, respectively, above untreated control wells) | 2.2 |  | 102 |  |  |  |
| CCN(CC)C(=O)N1CCN(C)CC1 [Diethylcarbamazine citrate] |  | W (Medium and weak hits were defined as compounds giving a cell fluorescence signal that was between 2 and 3 or 1 and 2 standard deviations, respectively, above untreated control wells) | 1.2 | 907 |  |  |  |  |
| CCn1cc(C(=O)O)c(=O)c2cc(F)c(N3CCNCC3)nc21 [Enoxacin] |  | W (Medium and weak hits were defined as compounds giving a cell fluorescence signal that was between 2 and 3 or 1 and 2 standard deviations, respectively, above untreated control wells) | 1.0 | 84 |  |  |  |  |
| C[C@]12CC[C@H](O)C[C@@H]1CC[C@@H]1[C@@H]2CC[C@]2(C)C(=O)CC[C@@H]12 [Epiandrosterone] | 93 |  |  |  |  | W 1.0 | consistently elevated signal |  |
| COc1cc(C)nc(-n2nc(C)cc2OC)n1 [Epirizole] |  | W (Medium and weak hits were defined as compounds giving a cell fluorescence signal that was between 2 and 3 or 1 and 2 standard deviations, respectively, above untreated control wells) | 1.3 | 115 |  |  |  | 0/5 |
| C[C@]12CC[C@@H]3c4ccc(OS(=O)(=O)O)cc4CC[C@H]3[C@@H]1CCC2=O [Estropipate] |  | W (Medium and weak hits were defined as compounds giving a cell fluorescence signal that was between 2 and 3 or 1 and 2 standard deviations, respectively, above untreated control wells) | 1.0 | 83 |  |  |  |  |
| CC(C(=O)O)c1cccc(Oc2ccccc2)c1 (stereo not shown) [Fenoprofen calcium salt dihydrate] |  | W (Medium and weak hits were defined as compounds giving a cell fluorescence signal that was between 2 and 3 or 1 and 2 standard deviations, respectively, above untreated control wells) | 1.1 | 88 |  |  |  |  |
| CC(C(=O)O)c1ccc(-c2ccccc2)c(F)c1 (stereo not shown) [Flubiprofen] |  | W (Medium and weak hits were defined as compounds giving a cell fluorescence signal that was between 2 and 3 or 1 and 2 standard deviations, respectively, above untreated control wells) | 1.0 | 98 |  |  |  |  |
| C[N+](C)(C)CCCCCC[N+](C)(C)C.O.O.[Br-].[Br-] [Hexamethonium dibromide dihydrate] |  | W (Medium and weak hits were defined as compounds giving a cell fluorescence signal that was between 2 and 3 or 1 and 2 standard deviations, respectively, above untreated control wells) | 1.1 |  | 98 |  |  |  |
| C[C@]12CCC(=O)C=C1CC[C@@H]1[C@@H]2[C@@H](O)C[C@@]2(C)[C@H]1CC[C@]2(O)C(=O)CO [Hydrocortisone base] |  | W (Medium and weak hits were defined as compounds giving a cell fluorescence signal that was between 2 and 3 or 1 and 2 standard deviations, respectively, above untreated control wells) | 1.1 |  | 94 |  |  |  |
| c1ccc2c(c1)OCC(C1=NCCN1)O2 (stereo not shown) [Idazoxan hydrochloride] |  | W (Medium and weak hits were defined as compounds giving a cell fluorescence signal that was between 2 and 3 or 1 and 2 standard deviations, respectively, above untreated control wells) | 1.0 | 103 |  |  |  |  |
| COC1=CC(=O)O[C@@H](/C=C/c2ccccc2)C1 [Kawain] |  | W (Medium and weak hits were defined as compounds giving a cell fluorescence signal that was between 2 and 3 or 1 and 2 standard deviations, respectively, above untreated control wells) | 1.1 | 111 |  |  |  |  |
| O=C(O)[C@H](O)[C@@H](O)[C@H](O[C@@H]1O[C@H](CO)[C@H](O)[C@H](O)[C@H]1O)[C@H](O)CO [Lactoblonic acid] |  | W (Medium and weak hits were defined as compounds giving a cell fluorescence signal that was between 2 and 3 or 1 and 2 standard deviations, respectively, above untreated control wells) | 1.2 |  | 78 |  |  |  |
| Cc1oncc1C(=O)Nc1ccc(C(F)(F)F)cc1 [Leflunomide] |  | W (Medium and weak hits were defined as compounds giving a cell fluorescence signal that was between 2 and 3 or 1 and 2 standard deviations, respectively, above untreated control wells) | 1.0 | 107 |  |  |  |  |
| CN(C)CCOC(=O)COc1ccc(Cl)cc1.Cl [Meciofenoxate hydrochloride] |  | W (Medium and weak hits were defined as compounds giving a cell fluorescence signal that was between 2 and 3 or 1 and 2 standard deviations, respectively, above untreated control wells) | 1.1 |  | 877 |  |  |  |
| O=C([O-])c1ccccc1-c1c2cc(Br)c(=O)cc-2oc2[c]([Hg+])c([O-])c(Br)cc12.[Na+].[Na+].[OH-] [Merbromin] |  | S (strong hits were initially identified as those compounds giving a cell fluorescence signal that was ≧3 standard deviations (SD) above untreated control wells) | 3.6 |  | 107 |  |  |  |
